From patent publication US20210317141A1, “OXOPYRIDO[1,2-A]PYRIMIDINE COMPOUNDS FOR THE TREATMENT AND PROPHYLAXIS OF BACTERIAL INFECTION” (Hoffmann-La Roche Inc., priority 2018, published 2021)
In brackets after ≈: the same amount, converted by molar mass.

How the values were obtained:
[1] = test system: E. coli (ATCC 25922); assay: Minimal Inhibitory Concentration (MIC) assay; assay type: cell-based; conditions: Escherichia coli, ATCC25922; CAMHB, 20 hours at 35° C.; read-out: MIC (μg/mL) E. coli ATCC 25922
Method: The in vitro potency of compounds to inhibit E. coli (ATCC 25922) growth was assessed by MIC (Minimal Inhibitory Concentration) assay. Samples were prepared from 10 mM DMSO stock solutions. After serial 2-fold dilution in DMSO in a master plate (Greiner, Cat No: 651201), 180 μL sterile distilled water was added to 20 μL each aliquot of the samples. Then […], diluted compounds were transferred into a new assay plate (Costar, 3599).
The growth medium […] Mueller Hinton Broth (CAMHB) was prepared by adding the 20 mg per liter CaCl2) and 20 mg per liter MgCl2 into the MHB medium (Jianglai Company, sterilized).
Vials of each of the test microorganisms were maintained frozen in the vapor phase of a liquid nitrogen freezer. Took out the bacteria E. coli ATCC 25922 (KWIKSTIK, 0335K) from liquid nitrogen freezer, thawed it in room temperature, and diluted the bacterial in the CAMHB medium to achieve a final inoculum of 5×10^5 CFU/mL. 90 μL CAMHB with bacteria was dispensed to the assay plate and pipetted 5 times.
Then the assay plates were incubated for 20 hours at 35° C. in ambient air. Following incubation, the MIC (μg/mL), the lowest concentration of drug that inhibits visible growth of the microorganism was read and recorded throw the microscope.

[2] = test system: E. coli (BW25113); assay: 50% growth inhibitory concentration (IC50) determination assay, E. coli; assay type: cell-based; conditions: Escherichia coli, growth inhibition, Iso-Sensitest broth, OD 600 nm over 16 h, 35±2° C., read-out: IC50 (μM) E. coli K12 BW25113
Method: (§1) The in vitro antimicrobial activity of the compounds against E. coli (BW25113, obtained from Coli Genetic Stock Center, #7636) and K. pneumoniae (ATCC10031) was determined according to the following procedure:
(§2) The assay used a 10-points Iso-Sensitest broth medium to measure quantitatively the in vitro activity of the compounds against E. coli BW25113 and K. pneumoniae ATCC 10031.
(§3) Stock compounds in DMSO were serially two-fold diluted (range from 50 to 0.097 μM final concentration) in 384 wells microtiter plates and inoculated with 49 μL the bacterial suspension in Iso-Sensitest broth medium to have a final cell concentration of ˜5×10^5 CFU/mL in a final volume/well of 50 μL/well. Microtiter plates were incubated at 35±2° C.
(§4) Bacterial cell growth was determined with the measurement of optical density at k=600 nm each 20 minutes over a time course of 16 h.
(§5) Growth inhibition was calculated during the logarithmic growth of the bacterial cells with determination of the concentration inhibiting 50% (IC50) of the growth.

[3] = Cytotoxicity assay (HepG2, CellTiter-Blue); assay type: cell-based; conditions: human, HepG2 cells, 3 days treatment
Method: The cytotoxicity of compounds of present invention was assessed by HepG2 assay. HepG2 cells (ATCC HB-8065™) were seeded into 96-well plates (1.2×10^4 cells per well) and treated with compounds for 3 days, cell viability was measured at day 3 post compound treatment using the CellTiter-Blue® Cell Viability Assay (Promega, Cat. No. G8082). 20 μL of Cell titer blue buffer were added to each well of the cells, incubated for 3 hours at 37° C., and the fluorescence value was measured by a plate reader (Molecular Device SpectraMax M2). The CC50 value of each compound is plotted with GraphPad Prism using four parameter logistic equation.

[4] = test system: K. pneumoniae (ATCC10031); assay: 50% growth inhibitory concentration (IC50) determination assay, K. pneumoniae; assay type: cell-based; conditions: Klebsiella pneumoniae, growth inhibition, Iso-Sensitest broth, OD 600 nm over 16 h, * = detection limit
Method: as §1, §2, §3, §4, §5

[5] = Lyophilisation solubility assay (LYSA); assay type: physicochemical; conditions: aqueous buffer, thermodynamic from solid; 0.05 M phosphate buffer, pH 6.5; * = detection limit
Method: The solubility of compounds of present invention was assessed by LYSA assay. Samples were prepared in duplicate from 10 mM DMSO stock solutions (20 μL) diluted in 30 μL pure DMSO. After evaporation of DMSO with a centrifugal vacuum evaporator, the residue was dissolved in 0.05 M phosphate buffer (150 μL, pH 6.5), stirred for one hour and shook for two hours. After one night, the solution was filtered using a microtiter filter plate. Then the filtrate and its 1/10 dilution were analyzed by HPLC-UV. In addition, a four-point calibration curve was prepared from the 10 mM stock solutions and used for the solubility determination of the compounds.

Row | MIC [1] [µg/mL] | IC50 [2] [µM] | IC50 [4] [µM] | solubility thermodynamic [5] [µg/mL] | Compound | CC50 at 3 days [3] [nM]
1 | 0.0212 (≈ 0.0456 µM) | 0.442 | ≤ 0.098 | – | CNc1c(F)c(F)cc2c1[nH]c1ncc(-c3ccc4ncc(C(=O)O)c(=O)n4c3)c(N(C)C)c12 [Example 1.12, 7-(4-(Dimethylamino)-6,7-difluoro-8-(methylamino)-9H-pyrido[2,3-b]indol-3-yl)-4-oxo-4H-pyrido[1,2-a]pyrimidine-3-carboxylic] | 29900
2 | – | 8.58 | 0.197 | 315 (≈ 559 µM) | CNc1cc(F)c(F)c2c1[nH]c1ncc(-c3cc(CN(C)C)c4ncc(C(=O)O)c(=O)n4c3)c(N3CCOCC3)c12 [Example 1.14, 7-(5,6-Difluoro-8-(methylamino)-4-morpholino-9H-pyrido[2,3-b]indol-3-yl)-9-((dimethylamino)methyl)-4-oxo-4H-pyrido[1,2-a]pyrimidine-3-carboxylic acid] | > 100000
3 | – | – | – | – | CCNc1cc(F)cc2c1[nH]c1ncc(-c3ccn4c(=O)c(C(=O)O)cnc4c3)c(-n3ccc(C(F)(F)F)n3)c12 [Example 1.31, 8-[8-(Ethylamino)-6-fluoro-4-[3-(trifluoromethyl)pyrazol-1-yl]-9H-pyrido[2,3-b]indol-3-yl]-4-oxo-pyrido[1,2-a]pyrimidine-3-carboxylic acid] | 30800
4 | 0.808 (≈ 1.52 µM) | 2.57 | 0.284 | – | CNc1cc(F)c(F)c2c1[nH]c1ncc(-c3ccc4ncc(C(=O)O)c(=O)n4c3)c(N(C)CC(F)(F)F)c12 [Example 1.09, 7-(5,6-Difluoro-4-(methyl(2,2,2-trifluoroethyl)amino)-8-(methylamino)-9H-pyrido[2,3-b]indol-3-yl)-4-oxo-4H-pyrido[1,2-a]pyrimidine-3-carboxylic acid] | 33400
5 | 0.0183 (≈ 0.0394 µM) | 0.906 | – | 30 (≈ 64.6 µM) | CNc1cc(F)c(F)c2c1[nH]c1ncc(-c3ccc4ncc(C(=O)O)c(=O)n4c3)c(N(C)C)c12 [Example 1.01, 7-[4-(Dimethylamino)-5,6-difluoro-8-(methylamino)-9H-pyrido[2,3-b]indol-3-yl]-4-oxo-pyrido[1,2-a]pyrimidine-3-carboxylic Acid] | 45900
6 | – | – | – | > 770 | CNc1c(F)c(F)cc2c1[nH]c1ncc(-c3ccc4ncc(C(=O)O)c(=O)n4c3)c(N3CCC[C@H]3CN(C)C)c12 [Example 1.26, (S)-7-(4-(2-((Dimethylamino)methyl)pyrrolidin-1-yl)-6,7-difluoro-8-(methylamino)-9H-pyrido[2,3-b]indol-3-yl)-4-oxo-4H-pyrido[1,2-a]pyrimidine-3-carboxylic acid] | > 100000
7 | 0.398 (≈ 0.704 µM) | – | – | 200 (≈ 354 µM) | CNc1cc(F)c(F)c2c1[nH]c1ncc(-c3ccc4ncc(C(=O)O)c(=O)n4c3)c(N3CCC(F)(CN(C)C)C3)c12 (centres unmarked) [Example 1.18, 7-(4-(3-((Dimethylamino)methyl)-3-fluoropyrrolidin-1-yl)-5,6-difluoro-8-(methylamino)-9H-pyrido[2,3-b]indol-3-yl)-4-oxo-4H-pyrido[1,2-a]pyrimidine-3-carboxylic acid] | > 100000
8 | 0.0432 (≈ 0.0733 µM) | 1.21 | 0.22 | 91 (≈ 154 µM) | CNc1cc(F)c(F)c2c1[nH]c1ncc(-c3cc(CN4CCOCC4)c4ncc(C(=O)O)c(=O)n4c3)c(N3CCCC3)c12 [Example 2.04, 7-[5,6-Difluoro-8-(methylamino)-4-pyrrolidin-1-yl-9H-pyrido[2,3-b]indol-3-yl]-9-(morpholinomethyl)-4-oxo-pyrido[1,2-a]pyrimidine-3-carboxylic acid] | –
9 | 0.0847 (≈ 0.182 µM) | 0.497 | ≤ 0.098 | 60 (≈ 129 µM) | CNc1c(F)cc(F)c2c1[nH]c1ncc(-c3ccc4ncc(C(=O)O)c(=O)n4c3)c(N(C)C)c12 [Example 1.17, 7-(4-(Dimethylamino)-5,7-difluoro-8-(methylamino)-9H-pyrido[2,3-b]indol-3-yl)-4-oxo-4H-pyrido[1,2-a]pyrimidine-3-carboxylic acid] | –
10 | – | – | – | – | CNc1cc(F)cc2c1[nH]c1ncc(-c3ccc4ncc(C(=O)O)c(=O)n4c3)c(N3CCC(F)(F)C3)c12 [Example 2.05, 7-(4-(3,3-Difluoropyrrolidin-1-yl)-6-fluoro-8-(methylamino)-9H-pyrido[2,3-b]indol-3-yl)-4-oxo-4H-pyrido[1,2-a]pyrimidine-3-carboxylic acid] | 31800
11 | 0.576 (≈ 1.25 µM) | 2.06 | 0.221 | – | CNc1cc(F)cc2c1[nH]c1ncc(-c3cc(C)c4ncc(C(=O)O)c(=O)n4c3)c(N(C)C)c12 [Example 1.05, 7-[4-(Dimethylamino)-6-fliioro-8-(methylamino)-9H-pyrido[2,3-b]indol-3-yl]-9-methyl-4-oxo-pyrido[1,2-a]pyrimidine-3-carboxylic acid] | 34000
12 | 0.194 (≈ 0.354 µM) | 0.748 | ≤ 0.098 | 51 (≈ 93.1 µM) | CNc1cc(F)c(F)c2c1[nH]c1ncc(-c3cc(CN4CCCC4)c4ncc(C(=O)O)c(=O)n4c3)c(N(C)C)c12 [Example 2.03, 7-[4-(Dimethylamino)-5,6-difluoro-8-(methylamino)-9H-pyrido[2,3-b]indol-3-yl]-4-oxo-9-(pyrrolidin-1-ylmethyl)pyrido[1,2-a]pyrimidine-3-carboxylic acid] | –
13 | 0.392 (≈ 0.706 µM) | 4.78 | 0.155 | 230 (≈ 414 µM) | CNc1cc(F)cc2c1[nH]c1ncc(-c3ccc4ncc(C(=O)O)c(=O)n4c3)c(N3CCC(CN(C)C4CC4)C3)c12 (centres unmarked) [Example 1.21, 7-(4-(3-((cyclopropyl(methyl)amino)methyl)pyrrolidin-1-yl)-6-fluoro-8-(methylamino)-9H-pyrido[2,3-b]indol-3-yl)-4-oxo-4H-pyrido[1,2-a]pyrimidine-3-carboxylic acid] | –
14 | 0.0223 (≈ 0.0396 µM) | 0.523 | ≤ 0.098 | 36 (≈ 63.9 µM) | CNc1cc(F)c(F)c2c1[nH]c1ncc(-c3cc(CN4CCOCC4)c4ncc(C(=O)O)c(=O)n4c3)c(N(C)C)c12 [Example 2.01, 7-[4-(Dimethylamino)-5,6-difluoro-8-(methylamino)-9H-pyrido[2,3-b]indol-3-yl]-9-(morpholinomethyl)-4-oxo-pyrido[1,2-a]pyrimidine-3-carboxylic Acid] | –
15 | 0.364 (≈ 0.85 µM) | – | – | – | CNc1cc(F)cc2c1[nH]c1ncc(-c3ccc4ncc(C(=O)O)c(=O)n4c3)c(C#N)c12 [Example 1.34, 7-[4-Cyano-6-fluoro-8-(methylamino)-9H-pyrido[2,3-b]indol-3-yl]-4-oxo-pyrido[1,2-a]pyrimidine-3-carboxylic acid] | > 100000
16 | – | 2.23 | 0.105 | 22 (≈ 43.3 µM) | CNc1cc(F)c(F)c2c1[nH]c1ncc(-c3ccc4ncc(C(=O)O)c(=O)n4c3)c(N(C)CCOC)c12 [Example 1.24, 7-(5,6-Difluoro-4-((2-methoxyethyl)(methyl)amino)-8-(methylamino)-9H-pyrido[2,3-b]indol-3-yl)-4-oxo-4H-pyrido[1,2-a]pyrimidine-3-carboxylic acid] | 71000
